Test results from US20240368050A1, “ENHANCED PERFORMANCE UREASE INHIBITOR, COMPOSITIONS AND METHODS THEREOF” (priority 2023, published 2024).
Like-named read-outs stand apart in the source and are kept apart here.

How the values were obtained:
[1] = test system: urease; format: biochemical
[2] = test system: urease; assay: Longevity of urea protection by urease inhibitor; details: ~0.1% NBPT; according to the literature and own studies
Source text: Urea can only benefit plants as an aqueous solution, so the protecting urease inhibitor NBPT must be also dissolved and spread along with urea.

[3] = ammonia after 1 week, NBPT (PG, 26.70%, 8 mg) alone or oxidant added per stated mg of NBPT
[4] = ammonia after 3 days, NBPT (PG, 26.70%, 8 mg) alone or oxidant added per stated mg of NBPT

CCCCNP(N)(N)=S [NBPT, N-(n-Butyl)thiophosphoric triamide, reference compound]
Urease Inhibitor Test with additional oxidant components (ammonia ppm), 1 week [1, 3]: 800 ppm | Urease Inhibitor Test (ammonia ppm), 1 week ([1]; ammonia after 1 week, treatment + about 5.0 g urea in 10 mL water on 60 g soil, sealed): 35 ppm | Urease Inhibitor Test (ammonia ppm), 2 weeks ([1]; ammonia after 2 weeks, treatment + about 5.0 g urea in 10 mL water on 60 g soil, sealed): 600 ppm | Urease Inhibitor Test with additional oxidant components (ammonia ppm), 3 days [1, 4]: 5 ppm | Urease Inhibitor Test (ammonia ppm), 3 days ([1]; ammonia after 3 days, treatment + about 5.0 g urea in 10 mL water on 60 g soil, sealed): 13 ppm | longevity of urea protection [2]: around one week

O=S(=O)([O-])OOS(=O)(=O)[O-].[K+].[K+] [Potassium Persulfate]
Urease Inhibitor Test with additional oxidant components (ammonia ppm), 1 week [1, 3]: 140 ppm | Urease Inhibitor Test with additional oxidant components (ammonia ppm), 3 days [1, 4]: 1 ppm

CCCCNP(N)(N)=O [NBPTO, oxidized N-(n-Butyl)thiophosphoric triamide]
Urease Inhibitor Test (ammonia ppm), 1 week [1]: 0.6 ppm | Urease Inhibitor Test (ammonia ppm), 2 weeks [1]: 1 ppm | Urease Inhibitor Test (ammonia ppm), 3 weeks [1]: 5 ppm | Urease Inhibitor Test (ammonia ppm), 3 days [1]: 0.05 ppm | urease inhibition increase in comparison with NBPT [1]: up to eight-fold urease inhibition increase

OO [Hydrogen Peroxide, 10%, Hydrogen Peroxide]
Urease Inhibitor Test with additional oxidant components (ammonia ppm), 1 week [1]: 400 ppm | Urease Inhibitor Test with additional oxidant components (ammonia ppm), 3 days [1]: 0.1 ppm
